Assay results published in patent US20250277012A1 (Protagonist Therapeutics, Inc., priority 2021, published 2025).
Starred links: 1 amine or outer side, 2 acyl side, 3 side chain; linkers in the order of their positions; H or OH if unused. Positions of bridges follow the written chain, without caps; N, C: chain ends. Non-standard residues stand in square brackets, D forms with d. Residues, ends and D or L forms follow the SMILES beside them. Groups on a side chain read outwards from the residue. *: point of attachment. Glutaryl(2-isohexyl,5-OMe) = COC(=O)CCC(CCCC(C)C)C(=O)*; C18 diacid = O=C(O)CCCCCCCCCCCCCCCCC(=O)*; dDip = N[C@@H](C(=O)O)C(c1ccccc1)c1ccccc1; Lys(Me3) = C[N+](C)(C)CCCC[C@H](N)C(=O)O; Dip = N[C@H](C(=O)O)C(c1ccccc1)c1ccccc1; γGlu = O=C(O)[C@H](CCC(=O)[*:2])N[*:1]; Pro(3R-OH) = O=C(O)[C@H]1NCC[C@H]1O; Palmitoyl = CCCCCCCCCCCCCCCC(=O)*; NMeF = CN[C@@H](Cc1ccccc1)C(=O)O; β3hF = N[C@H](CC(=O)O)Cc1ccccc1; NMeK = CN[C@@H](CCCCN)C(=O)O; Pen = CC(C)(S)[C@H](N)C(=O)O; Isovaleryl = CC(C)CC(=O)*; NMeC = CN[C@@H](CS)C(=O)O; hCys = N[C@@H](CCS)C(=O)O; Dap = NC[C@H](N)C(=O)O; AEEA = NCCOCCOCC(=O)O; Ahx = NCCCCCC(=O)O

Molecular target: T1, ferroportin (Homo sapiens, UniProt Q9NP59)
T1 sequence (Q9NP59 1-571): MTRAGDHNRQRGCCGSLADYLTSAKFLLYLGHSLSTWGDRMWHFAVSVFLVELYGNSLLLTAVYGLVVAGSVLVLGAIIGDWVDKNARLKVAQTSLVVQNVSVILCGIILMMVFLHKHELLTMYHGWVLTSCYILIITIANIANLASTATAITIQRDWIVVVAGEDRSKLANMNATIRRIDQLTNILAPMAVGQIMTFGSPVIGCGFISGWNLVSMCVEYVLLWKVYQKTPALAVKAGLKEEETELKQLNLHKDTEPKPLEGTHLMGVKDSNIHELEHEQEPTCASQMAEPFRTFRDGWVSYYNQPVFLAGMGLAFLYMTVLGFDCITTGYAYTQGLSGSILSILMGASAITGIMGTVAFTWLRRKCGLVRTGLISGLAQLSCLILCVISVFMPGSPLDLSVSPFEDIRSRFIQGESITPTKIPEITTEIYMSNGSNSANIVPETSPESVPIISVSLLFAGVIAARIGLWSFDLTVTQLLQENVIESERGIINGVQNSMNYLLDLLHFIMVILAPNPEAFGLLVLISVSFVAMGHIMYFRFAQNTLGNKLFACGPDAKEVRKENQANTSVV
Assay: FPN activity assay: ferroportin-GFP internalization/degradation in HEK293 cells
Format: cell-based
Design: expressed in transfected cells
Details: Table 6D; ferroportin-GFP internalization/degradation, at least 18 hours incubation; read-out: FPN IC50
Procedure: Following internalization, the ferroporin protein is degraded.
A retro inverse peptide is a peptide with a reversed sequence in all D amino acids. An example is that Hy-Glu-Thr-His-NH2 becomes Hy-DHis-DThr-DGlu-NH2. The EC50 of these reference compounds for ferroportin internalization/degradation was determined according to the FPN activity assay described above. These peptides served as control standards.

DC50	Structure (SMILES)
> 0.5 µM	CCCCCCCCCCCCCCCC(=O)NCC[N+](C)(C)CC(=O)NCCCC[C@H](NC(=O)[C@@H]1CSSC[C@H](NC(=O)[C@H](CCC(=O)OC)NC(=O)CC(C)C)C(=O)N[C@@H](Cc2c[nH]cn2)C(=O)N[C@@H](C(c2ccccc2)c2ccccc2)C(=O)N1)C(=O)NCCCCC [compound 123]

Same assay, conditions: Table 6E; ferroportin-GFP internalization/degradation, at least 18 hours incubation; read-out: FPN IC50

DC50	Structure (SMILES)
0.01 to 0.1 µM	CC(C)CC(=O)N[C@@H](CCC(=O)O)C(=O)N[C@H](C(=O)N[C@@H](Cc1c[nH]cn1)C(=O)N[C@H](C(=O)N1CCC[C@H]1C(=O)N[C@H]1CSSC[C@@H](C(=O)N[C@@H](CCCC[N+](C)(C)C)C(=O)N[C@@H](C(N)=O)C(c2ccccc2)c2ccccc2)NC1=O)C(c1ccccc1)c1ccccc1)[C@@H](C)O [compound 140] (Isovaleryl-ETH[Dip]PCC[Lys(Me3)][dDip]-NH2; disulfide 6-7)
0.01 to 0.1 µM	CCCCCCCCCCCCCCCC(=O)NCCCCCC(=O)NCCCC[C@@H](C(=O)N[C@H](C(=O)N[C@H](CCCCN)C(N)=O)C(c1ccccc1)c1ccccc1)N(C)C(=O)[C@@H]1CSSC[C@H](NC(=O)[C@@H]2CCCN2C(=O)[C@@H](NC(=O)[C@H](Cc2c[nH]cn2)NC(=O)[C@@H]2[C@H](O)CCN2C(=O)[C@H](CCC(=O)O)NC(=O)CC(C)C)C(c2ccccc2)c2ccccc2)C(=O)N1 [compound 174] (Isovaleryl-E[Pro(3R-OH)]H[Dip]PCC[NMeK]([Ahx-Palmitoyl])[Dip][dK]-NH2; disulfide 6-7)
0.1 to 0.5 µM	COC(=O)CCC(CCCC(C)C)C(=O)N[C@H](C(=O)N[C@@H](Cc1c[nH]cn1)C(=O)N[C@H](C(=O)N1CCC[C@H]1C(=O)N[C@H]1CSSC[C@@H](C(=O)N[C@H](CCCCN)C(=O)N[C@H](C(=O)N[C@H](CCCCN)C(N)=O)C(c2ccccc2)c2ccccc2)NC1=O)C(c1ccccc1)c1ccccc1)[C@@H](C)O (stereo partly shown) [compound 135] ({Glutaryl(2-isohexyl,5-OMe)}-TH[Dip]PCC[dK][Dip][dK]-NH2; disulfide 5-6)
0.01 to 0.1 µM	CC(C)CC(=O)N[C@@H](CCC(=O)O)C(=O)N[C@H](C(=O)N[C@@H](Cc1c[nH]cn1)C(=O)N[C@H](C(=O)N1CCC[C@H]1C(=O)N[C@H]1CSSC[C@@H](C(=O)N[C@@H](CCCC[N+](C)(C)C)C(=O)N[C@H](C(N)=O)C(c2ccccc2)c2ccccc2)NC1=O)C(c1ccccc1)c1ccccc1)[C@@H](C)O [compound 141] (Isovaleryl-ETH[Dip]PCC[Lys(Me3)][Dip]-NH2; disulfide 6-7)

Same assay, conditions: ferroportin-GFP HEK293 cells, at least 18 hours; read-out: FPN IC50

DC50	Structure (SMILES)
0.01 to 0.1 µM	CCCCCCCCCCCCCCCC(=O)NCCCCCC(=O)NCCCC[C@H](NC(=O)C[C@H](Cc1ccccc1)NC(=O)[C@@H](CCCCN)NC(=O)[C@@H](NC(=O)[C@@H]1CSSC[C@H](NC(=O)[C@@H](NC(=O)[C@H](Cc2c[nH]cn2)NC(=O)[C@@H](NC(=O)[C@H](CCC(=O)O)NC(=O)CC(C)C)[C@@H](C)O)C(c2ccccc2)c2ccccc2)C(=O)N1)[C@@H](C)CC)C(=O)N[C@H](CCCCN)C(N)=O [Compd 4] (Isovaleryl-ETH[Dip]CCI[dK][β3hF]K([Ahx-Palmitoyl])[dK]-NH2; disulfide 5-6)
0.01 to 0.1 µM	CCCCCCCCCCCCCCCC(=O)NCCCCCC(=O)NCCCC[C@H](NC(=O)C[C@H](Cc1ccccc1)NC(=O)[C@@H](CCCCN)NC(=O)[C@@H](NC(=O)[C@@H]1CSSC[C@H](NC(=O)[C@H](Cc2c[nH]cn2)NC(=O)[C@@H](NC(=O)[C@H](CCC(=O)O)NC(=O)CC(C)C)[C@@H](C)O)C(=O)N2CCC[C@H]2C(=O)N1)[C@@H](C)CC)C(=O)N[C@H](CCCCN)C(N)=O [Compd 3] (Isovaleryl-ETHCPCI[dK][β3hF]K([Ahx-Palmitoyl])[dK]-NH2; disulfide 4-6)
0.1 to 0.5 µM	CCCCCCCCCCCCCCCC(=O)NCCCCCC(=O)NCCCC[C@H](NC(=O)[C@@H](NC(=O)[C@@H]1CSSCC[C@H](NC(C)=O)C(=O)N[C@@H](CCC(=O)O)C(=O)N[C@@H]([C@@H](C)O)C(=O)N[C@@H](Cc2c[nH]cn2)C(=O)N[C@@H](C(c2ccccc2)c2ccccc2)C(=O)N2CCC[C@H]2C(=O)N1)[C@@H](C)CC)C(=O)N[C@H](CC(N)=O)Cc1ccccc1 [Compd 12] (Ac-[hCys]ETH[Dip]PCIK([Ahx-Palmitoyl])[β3hF]-NH2; disulfide 1-7)
0.001 to 0.01 µM	CCCCCCCCCCCCCCCC(=O)NCCCCCC(=O)NCCCC[C@H](NC(=O)C[C@H](Cc1ccccc1)NC(=O)[C@@H](CCCCN)NC(=O)[C@@H](NC(=O)[C@H](C)NC(=O)[C@H]1CSSC[C@H](NC(=O)[C@H](CCC(=O)O)NC(=O)CC(C)C)C(=O)N[C@@H](Cc2c[nH]cn2)C(=O)N[C@@H](C(c2ccccc2)c2ccccc2)C(=O)N1)[C@@H](C)CC)C(=O)N[C@H](CCCCN)C(=O)N[C@@H](C)C(N)=O [Compd 46] (Isovaleryl-ECH[Dip][dC]AI[dK][β3hF]K([Ahx-Palmitoyl])[dK]A-NH2; disulfide 2-5)
0.1 to 0.5 µM	CCCCCCCCCCCCCCCC(=O)NCCCCCC(=O)NCCCC[C@H](NC(=O)C[C@H](Cc1ccccc1)NC(=O)[C@@H](CCCCN)NC(=O)[C@@H](NC(=O)[C@@H]1CSSC[C@H](NC(=O)[C@@H](NC(=O)[C@H](CCC(=O)O)NC(=O)CC(C)C)[C@@H](C)O)C(=O)N[C@@H](C(c2ccccc2)c2ccccc2)C(=O)N2CCC[C@H]2C(=O)N1)[C@@H](C)CC)C(=O)N[C@H](CCCCN)C(N)=O [Compd ID 2, Isovaleric Acid-E-T-[Cys]-[Dpa]-P-[Cys]-I-[(D)Lys]-[bhPhe]-[Lys(Ahx_Palm)]-[(D)Lys]-NH2] (Isovaleryl-ETC[Dip]PCI[dK][β3hF]K([Ahx-Palmitoyl])[dK]-NH2; disulfide 3-6)
0.1 to 0.5 µM	CC[C@H](C)[C@H](NC(=O)[C@@H]1CSSC[C@H](NC(=O)[C@H](Cc2c[nH]cn2)NC(=O)[C@@H](NC(=O)[C@H](CCC(=O)O)NC(=O)CC(C)C)[C@@H](C)O)C(=O)N2CCC[C@H]2C(=O)N1)C(=O)N[C@H](CCCCN)C(=O)N[C@H](CC(=O)N[C@@H](CCCCNC(=O)COCCOCCNC(=O)COCCOCCNC(=O)CCCCCNC(=O)CCCCCCCCCCCCCCCCC(=O)O)C(=O)N[C@H](CCCCN)C(N)=O)Cc1ccccc1 [Compd 24] (Isovaleryl-ETHCPCI[dK][β3hF]K([AEEA-AEEA-Ahx-C18 diacid])[dK]-NH2; disulfide 4-6)
0.1 to 0.5 µM	CC[C@H](C)[C@H](NC(=O)[C@@H]1CSSC[C@H](NC(=O)[C@H](Cc2c[nH]cn2)NC(=O)[C@@H](NC(=O)[C@H](CCC(=O)O)NC(=O)CC(C)C)[C@@H](C)O)C(=O)N2CCC[C@H]2C(=O)N1)C(=O)N[C@@H](CCCCNC(=O)COCCOCCNC(=O)COCCOCCNC(=O)CC[C@H](NC(=O)CCCCCCCCCCCCCCCCC(=O)O)C(=O)O)C(=O)N[C@H](CC(=O)N[C@H](CCCCN)C(N)=O)Cc1ccccc1 [Compd 29] (Isovaleryl-ETHCPCIK([AEEA-AEEA-γGlu-C18 diacid])[β3hF][dK]-NH2; disulfide 4-6)
0.1 to 0.5 µM	CCCCCCCCCCCCCCCC(=O)NCCCCCC(=O)NCCCC[C@H](NC(=O)C[C@H](Cc1ccccc1)NC(=O)[C@H]1CSSC[C@H](NC(=O)CC(C)C)C(=O)N[C@@H]([C@@H](C)O)C(=O)N[C@@H](Cc2c[nH]cn2)C(=O)N[C@@H](C(c2ccccc2)c2ccccc2)C(=O)N2CCC[C@H]2C(=O)N[C@@H](C)C(=O)N[C@@H]([C@@H](C)CC)C(=O)N1)C(=O)N[C@H](CCCCN)C(N)=O [compound 106] (Isovaleryl-CTH[Dip]PAI[dC][β3hF]K([Ahx-Palmitoyl])[dK]-NH2; disulfide 1-8)
0.1 to 0.5 µM	CCCCCCCCCCCCCCCC(=O)NCCCCCC(=O)NCCCC[C@H](NC(=O)[C@@H](NC(=O)[C@@H]1CSSC[C@H](NC(C)=O)C(=O)N[C@@H](CCC(=O)O)C(=O)N[C@@H]([C@@H](C)O)C(=O)N[C@@H](Cc2c[nH]cn2)C(=O)N[C@@H](C(c2ccccc2)c2ccccc2)C(=O)N2CCC[C@H]2C(=O)N1)[C@@H](C)CC)C(=O)N[C@H](CC(N)=O)Cc1ccccc1 [Compd 9] (Ac-CETH[Dip]PCIK([Ahx-Palmitoyl])[β3hF]-NH2; disulfide 1-7)

Same assay, conditions: ferroportin-GFP internalization/degradation, HEK293 cells; Table 6E; read-out: FPN IC50

DC50	Structure (SMILES)
0.1 to 0.5 µM	CC(C)CC(=O)N[C@@H](CCC(=O)O)C(=O)N[C@H](C(=O)N[C@@H](Cc1c[nH]cn1)C(=O)N[C@H](C(=O)N1CCC[C@H]1C(=O)N[C@H]1CSSC[C@@H](C(=O)N(C)[C@@H](CCCCNC(=O)COCCOCCNC(=O)COCCOCCNC(=O)[C@H](CN)NC(=O)CCCCCCCCCCCCCCCCC(=O)O)C(=O)N(C)[C@@H](Cc2ccccc2)C(=O)N[C@H](CCCCN)C(N)=O)N(C)C1=O)C(c1ccccc1)c1ccccc1)[C@@H](C)O [compound 281] (Isovaleryl-ETH[Dip]PC[NMeC][NMeK]([AEEA-AEEA-Dap-C18 diacid])[NMeF][dK]-NH2; disulfide 6-7)
0.01 to 0.1 µM	CC(C)CC(=O)N[C@@H](CCC(=O)O)C(=O)N[C@H](C(=O)N[C@@H](Cc1c[nH]cn1)C(=O)N[C@H](C(=O)N1CCC[C@H]1C(=O)N[C@@H]1C(=O)N[C@H](C(=O)N(C)[C@@H](CCCCNC(=O)COCCOCCNC(=O)COCCOCCNC(=O)[C@H](CN)NC(=O)CCCCCCCCCCCCCCCCC(=O)O)C(=O)N[C@H](CC(=O)N[C@H](CCCCN)C(N)=O)Cc2ccccc2)CSSC1(C)C)C(c1ccccc1)c1ccccc1)[C@@H](C)O [compound 271] (Isovaleryl-ETH[Dip]P[Pen]C[NMeK]([AEEA-AEEA-Dap-C18 diacid])[β3hF][dK]-NH2; disulfide 6-7)
